Key:
[1] = tested on: phosphodiesterase type III; conditions: cited from earlier work
[2] = tested on: megakaryocytic cells from primary hematopoietic progenitor cells; assay: Megakaryocyte growth in expanded CD34+ cells transduced with shControl or shTRB3; format: cell-based, human; conditions: for MK cell number: cultured one week with anagrelide; for Inhibition of megakaryocyte growth: vs DMSO
Source text: UT7/mpl cells (clone 5.1) (Goncalves et al., Leukemia 12:1355-1366 (1998)) or human umbilical cord blood CD34+ hematopoietic cells were infected with pLKO.1-puro lentiviral vectors carrying short hairpin (sh) RNA sequences against human TRB-3 (designated shTRB3.1 to shTRB3.5) or a non-targeting scramble shRNA (designated shControl). shRNA clones were purchased from Sigma.
Expanded CD34+ cells (see Materials and Methods Section of Example 1) were infected as described above and then were sub-cultured under standard megakaryocyte culture conditions with anagrelide or an equivalent amount of vehicle for 2 days prior to addition of 1 μg/ml puromycin and further differentiation for 5 days.
CD61 expression of live cells was analysed by flow cytometry following double staining with 7-amino actinomycin D and the FITC-conjugated monoclonal antibody Y2/51 (Dako cytomation) or an isotype-matched control antibody; the latter was used to set a boundary between positive and negative cells.
Table 1 illustrates the effect of TRB-3 silencing on the ability of anagrelide-to inhibit megakaryocyte growth in cultures of primary hematopoietic progenitor cells. Expanded CD34+ cells were infected overnight with shControl or with a mixture of shTRB3.4 and shTRB3.5. Cells were then cultured for one week in the presence of anagrelide or an equivalent amount of vehicle under standard megakaryocyte culture conditions, except that 1 ug/ml puromycin was added after 2 days. The number of megakaryocytic cells was determined by cell counting of viable cells and flow cytometry.

TRB-3 mRNA expression = assay: TRB-3 expression assay (quantitative RT-PCR) in megakaryocyte cultures of expanded CD34+ cells; format: cell-based, human
Method: CD34+ cells were thawed, washed by centrifugation (300 g for 10 min at room temperature) in Stemspan™ medium (Stem Cell Technologies, London, UK) and then seeded in 48-well Falcon plates at a density of 1.5×10^5 cells/ml in the above culture medium supplemented with 100 U/ml penincillin, 0.1 mg/ml streptomycin, 0.25 μg/ml amphothericin B, 2% human umbilical cord blood plasma, 40 ng/ml TPO (Insight, UK), 50 ng/ml SCF, 100 ng/ml Flt3 ligand, and 10 ng/ml IL-3 (all from R&D Systems, Abingdon, UK). Cells were grown four days at 37° C. in a humidified incubator under 5% CO2/95% air.
The expanded cells were washed free of cytokines by centrifugation as above and re-suspended to 1.5×10^5 cells/ml by addition of fresh Stemspan™ culture medium containing 2% human umbilical cord plasma and 40 ng/ml TPO. Cells were then grown in 48-well Falcon plates at 37° C. in a humidified incubator under 5% CO2/95% air in the presence of either anagrelide, another test agent or an equivalent amount of vehicle (between 0.01% to 0.05% DMSO). At various time points the cells were harvested and processed for RNA extraction or for determination of CD61 antigen expression and total cell counting.
Cellular RNA was extracted with RNeasy reagent (Qiagen) according to the manufacturer's instructions and cDNA was prepared from 0.1-0.5 μg total RNA template using random hexamer primers and a High Capacity Reverse Transcription kit or a High Capacity RNA-to-cDNA Master Mix (Applied Biosystems). cDNA aliquots were either used immediately or stored at −20° C. for PCR analysis at a later stage. cDNA aliquots (equivalent to 5-10 ng of input RNA) were then analysed in duplicates by real-time PCR using gene-specific TaqMan probes on an ABI Prism 7500 Sequence Detection System (Applied Biosystems). Probes for TRB-3 (Hs00221754_m1), GpIIb (Hs00166246_m1), GUSB (Hs99999908_m1) and TBP (Hs99999910_m1) were commercially available from the Assay on Demand gene expression collection (Applied Biosystems). Thermal conditions were the following: 20 seconds at 95° C. followed by 40 cycles of 3 seconds at 94° C. and 30 seconds at 60° C. Reactions without cDNA were included as controls. Relative mRNA expression levels were calculated using the comparative cycle threshold (CT) method (Livak and Schmittgen, 2001) using the CT values obtained for β-glucuronidase (GUSB) or TATA Box binding protein (TBP) as internal references. For each target gene to be quantified, validation experiments were performed to determine that the efficiency of amplification of target and reference gene was approximately equal. When analysing dose responses EC50 values were calculated with Prism software (Version 4, GraphPad Software Inc, CA, USA).
In order to ascertain the sensitivity of the described method, dose-response curves were constructed based on the effect of anagrelide on TRB-3 mRNA expression using different numbers of cells. Cells were cultured for 4 days under standard MK culture conditions in the presence of increasing concentrations of anagrelide. RNA was extracted from the cells, and TRB-3 mRNA expression was determined by quantitative RT-PCR using β-glucuronidase as an endogenous reference. Results shown in FIG. 3 were expressed relative to the TRB-3 mRNA level detected in cells treated with vehicle alone. EC50 values were calculated using a sigmoidal dose response (variable slope) curve-fit model. Values in brackets represent the 95% CI. Error bars (SD) smaller than the size of the symbol are not shown.
Expanded CD34+ cells (see Materials and Methods Section of Example 1) were pre-incubated for various lengths of time under standard megakaryocyte culture conditions in the absence of the test agent and then treated with the test agent or an equivalent amount of vehicle for 24 hours prior to harvesting. TRB-3 mRNA expression was determined as described in the Materials and Methods Section of Example 1.

[3] = shTRB3 (shTRB3.4 + shTRB3.5)-transduced cells

Row | Compound | inhibition of phosphodiesterase type III [1] | MK cell number ([2]; shControl-transduced cells) | Inhibition of megakaryocyte growth ([2]; shControl-transduced cells) [%] | MK cell number [2, 3] | Inhibition of megakaryocyte growth [2, 3] [%] | TRB-3 mRNA response to 24 h exposure (TRB-3 mRNA expression; 1 μM, 24 h exposure following the refractory phase (after initial 2-3 days)) | TRB-3 mRNA response to 24 h exposure (TRB-3 mRNA expression; 1 μM, exposure confined to the initial 2-3 days of culture) | TRB-3 expression, 24 h treatment after three days of culture vs continuous four day exposure (TRB-3 mRNA expression; 1 μM, last 24 h vs continuous) | extent of TRB-3 expression response (fold increase vs vehicle) (TRB-3 mRNA expression; 4 days, RNA extracted from 25,000 cells) [fold] | extent of TRB-3 expression response (fold increase vs vehicle) (TRB-3 mRNA expression; 4 days, RNA extracted from 200,000 cells) [fold] | EC50 (TRB-3 mRNA expression; Homo sapiens, 96 h, 4 days, standard MK culture, RNA extracted from 200,000 cells, 95% CI 9 to 27 nM, read-out: EC50 for increase in TRB-3 mRNA expression) [nM] | effect on TRB-3 expression (TRB-3 mRNA expression)
1 | O=C1CN2Cc3c(ccc(Cl)c3Cl)N=C2N1 [Anagrelide, 6,7-dichloro-1,5-dihydroimidazo (2,1-b)quinazolin-2(3H)-one] | potent inhibitor | 106 ×10^3 | 49.3 | 202 ×10^3 | 21.5 | sharp increase in TRB-3 expression | relatively weak | higher level of TRB-3 expression than if the drug was present for the entire four day period of culture | 1.8 | 3 | 15 | 
2 | TPO: thrombopoietin, the primary signal for megakaryocyte production |  |  |  |  |  |  |  |  |  |  |  | reduces TRB-3 expression

From patent US9017936B2, “Assays for agents affecting megakaryocyte development” (Shire Human Genetic Therapies, Inc., priority 2009, dated 2015)
